Patent publication US11214803B2, “Modulators of YAP1 expression” (Ionis Pharmaceuticals, Inc., priority 2019, dated 2022)
pIC50: −log10 of the molar value. Strand notation (5' to 3'): a small letter for the sugar, then the base; units joined by * are phosphorothioate-linked, units joined directly phosphodiester-linked; [ ] holds rarer units or linkages, { } end groups; capitals alone tell only the bases. k = constrained ethyl (cEt); [5mC] = 5-methylcytosine; d = 2'-deoxy (DNA)

Test system: Yap1 mRNA
Test: Dose-dependent inhibition of human Yap1 in A-431 cells (Example 7, 10,000 cells per well, RTS36584)
Type: cell-based
Conditions: free uptake
Outline: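 Yap1 mRNA was expressed as percent of untreated control after normalization to total RNA (RIBOGREEN), and IC50 was derived by log/linear linear regression. The read-out used primer-probe set RTS36584 roughly 48 hours after free-uptake dosing of oligonucleotides into A-431 cells (10,000 cells/well).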

[1] = Table 58, 15.6 nM, A-431 cells 10,000 cells per well, 48 hours
[2] = Table 58, 62.5 nM, A-431 cells 10,000 cells per well, 48 hours
[3] = Table 58, 4000.00 nM, A-431 cells 10,000 cells per well, 48 hours
[4] = Table 58, A-431 cells 10,000 cells per well
[5] = 15.6 nM, A-431 cells, 10,000 cells per well, approximately 48 hours
[6] = 62.5 nM, A-431 cells, 10,000 cells per well, approximately 48 hours
[7] = 4000.00 nM, A-431 cells, 10,000 cells per well, approximately 48 hours
[8] = A-431 cells, approximately 48 hours, linear regression on log/linear plot
[9] = Table 56, 15.6 nM, A-431 cells 10,000 cells per well, 48 hours
[10] = Table 56, 62.5 nM, A-431 cells 10,000 cells per well, 48 hours
[11] = Table 56, 4000.00 nM, A-431 cells 10,000 cells per well, 48 hours
[12] = Table 56, A-431 cells 10,000 cells per well
[13] = Table 60, 15.6 nM, A-431 cells 10,000 cells per well, 48 hours
[14] = Table 60, 62.5 nM, A-431 cells 10,000 cells per well, 48 hours
[15] = Table 60, 4000.00 nM, A-431 cells 10,000 cells per well, 48 hours
[16] = Table 60, A-431 cells 10,000 cells per well

Substance: 958542 (kT*kA*kT*dA*dG*dT*dA*dT*dT*d[5mC]*dT*dA*dT*k[5mC]*k[5mC]*kA; antisense) [compound 958542]
- Yap1 mRNA, % UTC [1]: 90 % UTC
- Yap1 mRNA, % UTC [2]: 70 % UTC
- Yap1 mRNA, % UTC [3]: 17 % UTC
- pIC50 [4]: 7.00

Substance: 958730 (k[5mC]*kT*k[5mC]*dT*dG*dT*d[5mC]*dA*dG*dT*dT*dA*dT*k[5mC]*k[5mC]*kT; antisense) [compound 958730]
- Yap1 mRNA, % UTC [5]: 88 % UTC
- Yap1 mRNA, % UTC [6]: 48 % UTC
- Yap1 mRNA, % UTC [7]: 7 % UTC
- pIC50 [8]: 7.00

Substance: 958361 (antisense kG*k[5mC]*kT*d[5mC]*dG*dA*dA*d[5mC]*dA*dT*dG*d[5mC]*dT*kG*kT*kG) [compound 958361]
- Yap1 mRNA, % UTC [9]: 100 % UTC
- Yap1 mRNA, % UTC [10]: 80 % UTC
- Yap1 mRNA, % UTC [11]: 22 % UTC
- pIC50 [12]: 6.66

Substance: 958535 (kG*kG*kG*dT*d[5mC]*dA*dA*dT*dT*dT*dT*d[5mC]*dA*kG*k[5mC]*kA; antisense) [compound 958535]
- Yap1 mRNA, % UTC [5]: 98 % UTC
- Yap1 mRNA, % UTC [6]: 64 % UTC
- Yap1 mRNA, % UTC [7]: 19 % UTC
- pIC50 [8]: 6.70

Substance: 958575 (kG*kG*k[5mC]*dT*dA*d[5mC]*dT*dG*dG*d[5mC]*dA*dA*dA*kT*kT*kA; antisense) [compound 958575]
- Yap1 mRNA, % UTC [5]: 89 % UTC
- Yap1 mRNA, % UTC [6]: 58 % UTC
- Yap1 mRNA, % UTC [7]: 20 % UTC
- pIC50 [8]: 7.00

Substance: 958531 (kG*kT*kA*dG*dG*dA*dG*d[5mC]*dA*dA*dG*dT*d[5mC]*kT*kT*kG; antisense) [compound 958531]
- Yap1 mRNA, % UTC (Table 57, 15.6 nM, A-431 cells 10,000 cells per well, 48 hours): 92 % UTC
- Yap1 mRNA, % UTC (Table 57, 62.5 nM, A-431 cells 10,000 cells per well, 48 hours): 63 % UTC
- Yap1 mRNA, % UTC (Table 57, 4000.00 nM, A-431 cells 10,000 cells per well, 48 hours): 13 % UTC
- pIC50 (Table 57, A-431 cells 10,000 cells per well): 7.00

Substance: 958403 (antisense k[5mC]*kA*kG*dT*dT*dT*dA*dT*dG*dT*dA*dG*dT*kA*kG*kT) [compound 958403]
- Yap1 mRNA, % UTC [9]: 94 % UTC
- Yap1 mRNA, % UTC [10]: 63 % UTC
- Yap1 mRNA, % UTC [11]: 12 % UTC
- pIC50 [12]: 6.92

Substance: 958659 (kG*kT*kT*dG*dT*dA*dT*dT*dA*d[5mC]*dT*d[5mC]*dT*k[5mC]*k[5mC]*kA; antisense) [compound 958659]
- Yap1 mRNA, % UTC (Table 61, 15.6 nM, A-431 cells 10,000 cells per well, 48 hours): 91 % UTC
- Yap1 mRNA, % UTC (Table 61, 62.5 nM, A-431 cells 10,000 cells per well, 48 hours): 68 % UTC
- Yap1 mRNA, % UTC (Table 61, 4000.00 nM, A-431 cells 10,000 cells per well, 48 hours): 9 % UTC
- pIC50 (Table 61, A-431 cells 10,000 cells per well): 7.00

Substance: 958527 (kG*kT*kA*dA*dG*dT*dA*dA*dG*dA*dA*d[5mC]*dA*kA*kT*k[5mC]; antisense) [compound 958527]
- Yap1 mRNA, % UTC [1]: 89 % UTC
- Yap1 mRNA, % UTC [2]: 74 % UTC
- Yap1 mRNA, % UTC [3]: 13 % UTC
- pIC50 [4]: 7.00

Substance: 958615 (kT*kG*kG*dT*d[5mC]*dT*dT*dG*dT*dT*d[5mC]*dT*dT*kA*kT*kG; antisense) [compound 958615]
- Yap1 mRNA, % UTC [5]: 91 % UTC
- Yap1 mRNA, % UTC [6]: 60 % UTC
- Yap1 mRNA, % UTC [7]: 18 % UTC
- pIC50 [8]: 7.00

Substance: 958648 (kG*kA*kA*dT*dA*d[5mC]*dT*dG*dA*dG*dT*d[5mC]*dA*kG*kG*kA; antisense) [compound 958648]
- Yap1 mRNA, % UTC [13]: 80 % UTC
- Yap1 mRNA, % UTC [14]: 65 % UTC
- Yap1 mRNA, % UTC [15]: 24 % UTC
- pIC50 [16]: 6.70

Substance: 958805 (k[5mC]*kA*kA*dG*dA*dT*dA*dA*dT*d[5mC]*dA*dT*d[5mC]*k[5mC]*kT*k[5mC]; antisense) [compound 958805]
- Yap1 mRNA, % UTC [5]: 90 % UTC
- Yap1 mRNA, % UTC [6]: 89 % UTC
- Yap1 mRNA, % UTC [7]: 28 % UTC
- pIC50 [8]: 6.52

Substance: 958597 (k[5mC]*k[5mC]*k[5mC]*dA*dA*dT*dA*d[5mC]*dA*dA*d[5mC]*d[5mC]*dA*kA*kG*kA; antisense) [compound 958597]
- Yap1 mRNA, % UTC (Table 59, 15.6 nM, A-431 cells 10,000 cells per well, 48 hours): 104 % UTC
- Yap1 mRNA, % UTC (Table 59, 62.5 nM, A-431 cells 10,000 cells per well, 48 hours): 46 % UTC
- Yap1 mRNA, % UTC (Table 59, 4000.00 nM, A-431 cells 10,000 cells per well, 48 hours): 20 % UTC
- pIC50 (Table 59, A-431 cells 10,000 cells per well): 6.70

Substance: 958508 (kG*kA*kG*dA*dG*d[5mC]*dA*dG*dA*dT*dA*dA*dT*k[5mC]*kG*kA; antisense) [compound 958508]
- Yap1 mRNA, % UTC [13]: 65 % UTC
- Yap1 mRNA, % UTC [14]: 64 % UTC
- Yap1 mRNA, % UTC [15]: 13 % UTC
- pIC50 [16]: 7.00
